# Key:
# human ApoA-I promoter [1] = assay: ApoA-I promoter induction in Caco-2 intestinal cells (pAI.474-Luc luciferase reporter); assay type: cell-based; settings: Caco-2 cells, 15 μM, 48 hours incubation, luciferase activity vs control samples
# Procedure, shortened: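 Caco-2 cells stably carrying the human ApoA-I promoter–firefly luciferase construct (pAI.474-Luc) were starved 24 h in 0.5% FBS medium, then exposed to compound at 0 to 100 μM final for 48 h at 37° C. Luciferase activity in lysates was normalized to Bradford protein and compared with solvent-only and untreated controls.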
# human ApoA-I promoter [2] = assay: ApoA-I promoter induction in HepG2 liver cells (pAI.474-Luc luciferase reporter); assay type: cell-based; settings: average values at 15 μM, 48 hours incubation
# Method: This study determined whether compounds of the invention have an effect on ApoA-I promoter activity expression in HepG2 cells, a liver cell line. Cells were grown under conditions recommended by the ATCC and summarized by Wong.
# The promoter region of the gene encoding human ApoA-I was isolated and ligated upstream the structure gene of firefly luciferase to construct a reporter plasmid (pAI.474-Luc). The reporter plasmid, along with pRSV-β-galactosidase (as a control for transfection efficiency), were co-transfected into HepG2 cells. The cells were then incubated in an MEM selection media containing 20% fetal calf serum supplemented with G418 (final concentration: 0.5 mg/mL, Gibco) to give established strains that stably express from the reporter gene. The strains were seeded to a 6-well culture plates and incubated for 48 hours at 37° C. under 5% carbon dioxide. Cells were starved for 24 hrs in MEM selection media containing 0.5% FBS. Then, a solution of the compounds of the invention in DMSO (or other appropriate solvent) was added to the wells at a final concentration of 0 to 100 μM in MEM selection media containing 0.5% FBS.
# After further incubation for 48 hours, the cells were harvested and lysed using Reporter Lysis Buffer (PROMEGA E3971), and 50 μL of luciferase assay reagent (PROMEGA E4550 Luciferase Reporter 1000 assay system) were added to measure luciferase activity with a luminometer (Fluoroskan Ascent FL from Thermo electron Corporation). Luciferase activity was normalized to lysate protein concentrations, measured using Bradford Reagent (Biorad Protein Assay reagent Cat #500-0006).
structure (smiles),measurement,setting,value
"O=c1cc(-c2ccc(O)cc2)oc2ncccc12 [Example 34, 2-(4-Hydroxy-phenyl)-pyrano[2,3-b]pyridin-4-one]",ApoA-I Promoter Induction,human ApoA-I promoter [1],increased
same,ApoA-I Promoter Induction,human ApoA-I promoter [2],increased
